In assay [1] the test system is melanoma (RPMI-7951). The experiment in a line: cell proliferation assay ([methyl-3H] thymidine incorporation), RPMI-7951. Type of assay: cell-based, human. To be noted: Table 1; final concentration 6 μM; 72 hours in culture, 3 hours pulse; n=6. How it is done: (§1) Two human cell lines namely a histiocytic lymphoma (U937) and a melanoma (RPMI-7951) were seeded into 30 mm^2 tissue culture wells, in the appropriate culture medium supplemented with 10% fetal calf serum at a density of 250 cells/mm^2. Six hours later the test compounds were added in the same culture medium to the cells to give a final concentration of 6 μM. Control wells contained cells supplemented with the same culture medium containing the equivalent amount of drug vehicle, which in this case was DMSO at a final concentration of 0.08%. After 72 hours in culture the cells were pulsed for 3 hours with [methyl-^3[H] Thymidine] (2 μCi/ml) and then harvested onto filter mats and DNA associated radioactivity counted. Results are expressed as percentage of control ^3[H] Thymidine incorporation (n=6±1 stdv).

Assay [2] deals with histiocytic lymphoma (U937). The experiment in a line: cell proliferation assay ([methyl-3H] thymidine incorporation), U937. Type of assay: cell-based, human. The note with it: Homo sapiens, U-937, 72 hours in culture, n=6, read-out: U937: percentage of control 3[H] Thymidine incorporation. How it is done: as §1
Further examples were tested in the U937 assay described above at 6 μM and the results, expressed as percentage of control ^3[H] Thymidine incorporation (n=6±1 stdv), are set out in the following Table 2.
as §1, with “A” for “Two”, “line,” for “lines”, “(U937), was” for “(U937) and a melanoma (RPMI-7951) were”, “30MM^2” for “30 mm^2”, “cellS/MM^2.” for “cells/mm^2.”, “were” for “are”

The mark [3] stands for this setting: Table 1, final concentration 6 μM, 3 hours pulse.

Like-named read-outs stand apart in the source and are kept apart here.

Take `C=CC[C@H](C(=O)NO)[C@@H](CC(C)C)C(=O)N[C@@H](Cc1ccccc1)C(=O)OCC` [Example 2, 2S-(3S-Hydroxycarbamoyl-2R-isobutyl-hex-5-enoylamino)-3-phenylpropionic acid ethyl ester]: the “RPMI: percentage of control 3[H] Thymidine incorporation” value (“RPMI: percentage” for short) in assay [1] was 37 percentage of control. Further, the activity at 6 µM in assay [2] (setting [3]) is 7%. On the same counts, the results for `C=CC[C@H](C(=O)NO)[C@@H](CC(C)C)C(=O)N[C@@H](Cc1ccccc1)C(=O)OC` [Example 1, 2S-(3S-Hydroxycarbamoyl-2R-isobutyl-hex-5-enoylamino)-3-phenylpropionic acid methyl ester] are 40 percentage of control and 7%.

In the case of `COC(=O)[C@H](Cc1ccccc1)NC(=O)[C@H](CC(C)C)[C@H](C)C(=O)NO` [Example 5, 3R-(2-Phenyl-1S-methylcarboxy-ethylcarbamoyl)-2S, 5-dimethylhexanohydroxamic acid], the “RPMI: percentage” value in assay [1] is on record as 82 percentage of control. For the same molecule, the activity at 6 µM in assay [2] (setting [3]) was found to be 19%.

Take `CC(C)C[C@@H](C(=O)N[C@@H](Cc1ccccc1)C(=O)OC1CCCC1)[C@H](O)C(=O)NO` [Example 11, 2S-[2R-(S-Hydroxy-hydroxycarbamoyl-methyl)-4-methyl-pentanoylamino]-3-phenyl-propionic acid cyclopentyl ester]: the activity at 6 µM in assay [2] (Table 2, 6 μM) stood at 0%.

As to `C=CC[C@H](C(=O)NO)[C@@H](CC(C)C)C(=O)N[C@@H](Cc1ccccc1)C(=O)O[C@@H](C)CCC` [Example 31, 2S-(3S-Hydroxycarbamoyl-2R-isobutyl-hex-5-enoylamino)-3-phenylpropionic acid 1S-methyl-butyl ester], the activity at 6 µM in assay [2] (Table 2, 6 μM) stood at 7%. For the molecule `C=CC[C@H](C(=O)NO)[C@@H](CC(C)C)C(=O)N[C@@H](Cc1ccccc1)C(=O)OC(C)C` [Example 3, 2S-(3S-Hydroxycarbamoyl-2R-isobutyl-hex-5-enoylamino)-3-phenylpropionic acid isopropyl ester], the “RPMI: percentage” value in assay [1] is given as 27 percentage of control. Besides, the activity at 6 µM in assay [2] (setting [3]) was 2.5%. As to `C=CC[C@H](C(=O)NO)[C@@H](CC(C)C)C(=O)N[C@@H](Cc1ccccc1)C(=O)OC(C)(C)C` [Example 6, 2S-(3S-Hydroxycarbamoyl-2R-isobutyl-hex-5-enoylamino)-3-phenyilpropionic acid tert-butyl ester], in assay [2] (Table 2, 6 μM), the activity at 6 µM was 18%.

For `C=CC[C@H](C(=O)NO)[C@@H](CC(C)C)C(=O)N[C@@H](COC(C)(C)C)C(=O)OC1CCCC1` [Example 40, 3-tert-Butoxy-2S-(3S-hydroxcarbamoyl-2R-isobutyl-hex-5-enoylamino)-propionic acid cyclopentyl ester], in assay [2] (Table 2, 6 μM), the activity at 6 µM worked out at 0%. As to `C=CC[C@H](C(=O)NO)[C@@H](CC(C)C)C(=O)N[C@H](Cc1ccccc1)C(=O)OC(C)C` [Example 23, 2R-(3S-Hydroxycarbamoyl-2R-isobutyl-hex-5-enoylamino)-3-phenylpropionic acid isopropyl ester], the activity at 6 µM in assay [2] (Table 2, 6 μM) stood at 36%. Still for that read-out and setting: the same measure for `CO[C@H](C(=O)NO)[C@@H](CC(C)C)C(=O)N[C@@H](Cc1ccccc1)C(=O)OC(C)C` [Example 16, 2S-[2R-(S-Hydroxycarbamoyl-methoxy-methyl)-4-methyl-pentanoylamino]-3-phenyl-propionic acid isopropyl ester]: 2%. `C=CC[C@H](C(=O)NO)[C@@H](CC(C)C)C(=O)N[C@@H](CC(C)C)C(=O)OC1CCCC1` [Example 27, 2S-(3S-Hydroxycarbamoyl-2R-isobutyl-hex-5-enoylamino)-4-methyl-pentanoic acid cyclopentyl ester]: the activity at 6 µM in assay [2] (Table 2, 6 μM) stood at 0%.

Regarding `COCCOC(=O)[C@H](NC(=O)[C@H](CC(C)C)[C@H](C)C(=O)NO)C(C)(C)C` [Example 18, 2S-[2R-(1S-Hydroxycarbamoyl-ethyl)-4-methyl-pentanoylamino]-3,3-dimethyl-butyric acid 2-methoxy-ethyl ester], the activity at 6 µM in assay [2] (Table 2, 6 μM) came out at 54%. Consider `C=CC[C@H](C(=O)NO)[C@@H](CC(C)C)C(=O)N[C@H](C(=O)OC1CCCC1)c1ccccc1` [Example 41, 2S-(3S-Hydroxycarbamoyl-2R-isobutyl-hex-5-enoylamino)-2-phenylethanoic acid cylcopentyl ester], for which the activity at 6 µM in assay [2] (Table 2, 6 μM) amounted to 0%.

Consider `C=CC[C@H](C(=O)NO)[C@@H](CC(C)C)C(=O)N[C@H](Cc1ccccc1)C(=O)OCCOC` [Example 13, 2S-(3S-Hydroxycarbamoyl-2R-isobutyl-hex-5-enoylamino)-3-phenylpropionic acid 2-methoxy-ethyl ester], for which the activity at 6 µM in assay [2] (Table 2, 6 μM) came to 4%.

Source of the values: patent US6462023B1, “Cytostatic agents” (British Biotech Pharmaceuticals, Ltd., priority 1988, dated 2002).
